Results on 1 compound are retold here after US20200299671A1, “IMMOBILIZED MULTI-ENZYMATIC HALOGENATION SYSTEM” (priority 2019, published 2020).

Data set [1] addresses T1, PltM (Pseudomonas protegens, UniProt Q4KCZ3). The data set is described as follows: In vitro PltM halogenation assay with a single halide salt, substrate profile (Assay 1a-1d), LC-MS. Type of data set: biochemical. The method, then: The halogenation assays were carried out similarly to a recently described procedure. For substrate profile determination (Assay 1), 100 μL reactions were carried out in 30 mM sodium phosphate pH 7.4. As a halide source, 200 mM of either NaF (Assay 1a), NaCl (Assay 1b), NaBr (Assay 1c), or NaI (Assay 1d) was used. To ensure that PltM is incapable of fluorinating, an additional 200 μL reaction with 300 mM NaF was run. A 200 μL reaction with 400 mM NaBr was also run to ensure no additional bromination reaction occurred. Each reaction also contained a specified substrate (0.5 mM), FAD (0.2 mM), NADPH (5 mM), PltM (5.5 μM), and SsuE (5.0 μM). The reactions were initiated by adding NADPH under N2. The reaction tubes were tightly closed to avoid contact with air. The reaction mixtures were incubated at 25° C. for 3 h prior to extraction with EtOAc (4×100 μL). The organic layer was dried by a gentle flow of air, and the residue was dissolved in MeOH to prepare 1-10 μg/mL samples for LC-MS analysis.
(§1) The halogenation reaction products were analyzed by HPLC or LC-MS by injecting 10 μL of each sample. The compounds were separated by Reversed-phase HPLC at the flow rate of 0.2 mL/min by using the following program: eluent A=H2O; eluent B=MeCN; gradient=2% B for 5 min, increase to 100% B over a 30 min period, stay at 100% B for 9 min, decrease to 2% B over a 1 min period, and re-equilibrate the column at 2% B for 30 min.
(§2) For HPLC analysis, the molecules were observed by absorbance at λ=275 nm as described above. As necessary, the following mass spectrometer was operated in negative and positive modes with the following parameters: For negative mode, mass range, 80-600 m/z in profile mode; temperature, 550° C. and ion spray voltage floating, −4500 V, and for positive mode, mass range, 80-600 m/z in profile mode; temperature, 550° C. and ion spray voltage floating, 4500 V. The presence of each compound was analyzed by extracted ion chromatograph (XIC) with the expected mass ±0.05 Da for Assay 1 and Assay 2 and ±0.005 Da for Assay 3 (FIGS. 2A-C, 8-13, and 17-37; Tables 3-4 and 7).

Data set [2] addresses T1, PltM. The data set is described as follows: Halogenating competition assays in 1:1 or 10:1 mixtures of two halide salts (Assay 2a-2e), LC-MS. Type of data set: biochemical. The method, then:
To establish if hetero-dihalogenation by PltM could be observed, halogenating competition assays in 1:1 or 10:1 mixtures of two different halide salts were performed (Assay 2). The reactions contained the same components as above except single halide salts were replaced with either a 1:1/NaCl:NaBr (Assay 2a), 1:1/NaCl:NaI (Assay 2b), or 1:1/NaBr:NaI (Assay 2c) mixtures (100 mM of each halide). The reactions were initiated by adding NADPH under N2. A 1:1/NaCl:NaBr reaction was also performed with 200 mM of each halide to test occurrence of homo-di- or hetero-chlorination/bromination, and 10:1/NaCl:NaI (Assay 2d) and 10:1/NaBr:NaI (Assay 2e) mixtures with 200 mM of NaCl or NaBr and 20 mM of NaI were tested to check whether chlorination or bromination could occur in the presence of iodide and whether iodination can occur with chlorination or bromination to yield a C1,I-substrate or Br,I-substrate. The reactions were incubated and processed as described above in Assay 1.
as §1, §2

Data set [3] addresses T1, PltM. The data set is described as follows: Optimized in vitro PltM halogenation assay (PltM, SsuE, GDH), overnight overall yield by HPLC. Conditions: optimized in vitro conditions. Type of data set: biochemical. The procedure: To increase production of halogenated molecules and decrease the amount of NADPH required, the above in vitro assay was optimized by using an additional enzyme, glucose dehydrogenase (GDH). […] The overall yield of halogenation products was determined for reactions run overnight for several substrates (Table 8). Conversion of the substrate to halogenated products was monitored by HPLC at λ=275-320 nm, where the absorbance of molecules is not affected by halogenation, and quantified as fraction of reaction species (%).
The time course experiments were performed in duplicate. Compound 1 was unstable under these optimized conditions, and it was not tested. The in vitro analysis of K87A mutant was performed overnight in 100 μL reaction mixture by using the compound 11 as a substrate. Wild-type PltM was used as a positive control, and no enzyme reaction was used as a negative control. In all above reactions, the compounds were extracted with EtOAc (4×100 μL) and dried under gentle air flow.
as §1, §2

Data set [4] has as its system PltM L111Y. The data set is described as follows: Cell-based activity assay (Assay 3), PltM L111Y. Details: species or system E. coli BL21 (DE3). Conditions: cells expressing L111Y mutant. The method, then: (§3) E. coli BL21 (DE3) cells were transformed with ppltM-pET28a, ppltMK87A-pET28a, ppltML111Y-pET28a, ppltMS404Y-pET28a, and ppltA-pET28a. The ppltA-pET28a plasmid overexpressing the halogenase PltA whose substrate is pyrrolyl-S-PltL (a peptidyl carrier protein-linked pyrrole) was used as a negative control. Five colonies from each transformant were cultured in 2×500 mL of LB medium (for ppltM-pET28a, ppltML111Y-pET28a, and ppltMS404Y-pET28a) and 1×500 mL of LB medium (for ppltMK87A-pET28a and ppltA-pET28a) with 50 μg/mL kanamycin at 37° C. and 200 rpm until attenuance of 0.2 at 600 nm. The cultures were then moved to 25° C. until attenuance of 0.5. Protein expression was induced by adding 0.2 mM IPTG to all […] flasks, and the cultures were incubated with shaking for 1 h. 12.5 μg/mL of compound 1 was added to 1×500 mL of LB medium containing ppltM-pET28a, ppltMK87A-pET28a, ppltML111Y-pET28a, ppltMS404Y-pET28a, and ppltA-pET28a. Compound 1 was not added to the three remaining flasks (negative controls). After additional incubation for 20 h, the cells were pelleted at 5,000 g for 10 min, and the supernatant was collected. The supernatant was extracted with EtOAc (3×330 mL), which was dried in vacuo. […]
(§4) The halogenation reaction products were analyzed by HPLC or LC-MS by injecting 10 μL of each sample. […]
(§5) For HPLC analysis, the molecules were observed by absorbance at λ=275 nm as described above. […]

Data set [5] concerns PltM S404Y. Put plainly: Cell-based activity assay (Assay 3), PltM S404Y. Details: species or system E. coli BL21 (DE3). Particulars: cells expressing S404Y mutant. The method, then: as §3, §4, §5

T1 sequence (Q4KCZ3 entry or part of it): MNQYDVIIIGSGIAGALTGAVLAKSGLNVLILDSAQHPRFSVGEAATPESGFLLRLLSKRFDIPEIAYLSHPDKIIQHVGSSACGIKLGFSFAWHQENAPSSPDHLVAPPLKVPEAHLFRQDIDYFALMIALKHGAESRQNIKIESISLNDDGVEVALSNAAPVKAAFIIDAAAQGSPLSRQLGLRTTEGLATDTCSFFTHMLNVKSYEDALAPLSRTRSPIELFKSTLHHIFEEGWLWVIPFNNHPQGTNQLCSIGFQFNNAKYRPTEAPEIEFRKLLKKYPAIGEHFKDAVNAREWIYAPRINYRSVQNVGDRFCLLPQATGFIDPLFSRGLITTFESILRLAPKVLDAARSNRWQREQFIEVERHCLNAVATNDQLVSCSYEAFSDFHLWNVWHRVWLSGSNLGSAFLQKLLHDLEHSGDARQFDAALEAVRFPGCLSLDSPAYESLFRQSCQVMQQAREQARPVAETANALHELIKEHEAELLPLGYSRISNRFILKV

Turning to `Oc1cc(O)cc(O)c1` [Compound 1, phloroglucinol], in data set [1] (NaBr as halide source (Assay 1c)), the “bromination by PltM (products identified by LC-MS)” value was “only mono-halogenation”. Further, the “chlorination by PltM (products identified by LC-MS)” value in data set [1] (NaCl as halide source (Assay 1b)) was “Mono- and dihalogenation”. In addition, in data set [1] (NaF as halide source (Assay 1a)), the “fluorination by PltM (products identified by LC-MS)” value is given as “not fluorinated”. In addition, the “iodination by PltM (products identified by LC-MS)” value in data set [1] (NaI as halide source (Assay 1d)) is “Mono- and dihalogenation”. Also, the “products of competitive halogenation” value in data set [2] (10-fold molar excess of NaBr over NaI) is “mono-brominated, mono-iodinated, and diiodinated 1 were identified”; in data set [2] (10-fold molar excess of NaCl over NaI), “all possible mono- and dihalogenated products were identified, including chloro-iodinated 1”; in data set [2] (two halides (Cl/Br, Cl/I or Br/I) at equimolar ratios), “mono-halogenated products of either halogen and diiodinated 1 where NaI was used”. Further, the “stability under optimized reaction conditions” value in data set [3] is recorded as “unstable”. Besides, the “halogenation in fermentation culture” value in data set [4] and in data set [5] was “product yield was significantly reduced compared to wild-type” throughout.
